Among the data in patent US7078550B2, “Silanyl phenols and naphthols” (Ciba Specialty Chemicals Corporation, priority 2001, dated 2006) are MIC values, retold here.

Each structure is given as a SMILES string. Converted amounts (≈) assume the structure as drawn. Bounds are passed on as bounds.

Holding throughout (test): Minimum Inhibitory Concentration (MIC) in the agar incorporation test
Common to all, as to format: cell-based

For assay [1], the system named is Corynebacterium xerosis ATCC 373. To be noted: ATCC373, 24 h. Here is the method:
(§1) Determination of the Minimum Inhibitory Concentration (MIC) in the Agar Incorporation Test (MIC Test) [table] Test Principle: 0.3 ml of each dilution stage is mixed with 15 ml of still-liquid nutrient medium. After the nutrient medium has solidified, 10 μl of each of the following organism dilutions of the test strains in 0.85% NaCl solution are spotted onto the agar medium: The plates are incubated for 24 hours at 37° C. (A. niger 3 days at 28° C.) and then the highest dilution (lowest concentration) of the test substance at which growth is just no longer discernible (corresponds to the MIC) is determined.

For assay [2], the system named is Escherichia coli ATCC 10536. Conditions: ATCC10536. Here is the method: as §1
Assay [3] has as its system Staphylococcus hominis DSM 20328. To be noted: DSM20328. Here is the method: as §1
Assay [4] deals with Candida albicans ATCC 10231. Here is the method:
(§2) Determination of the Minimum Inhibitory Concentration (MIC) in the Agar Incorporation Test (MIC Test)
(§3) 0.3 ml of each dilution stage is mixed with 15 ml of still-liquid nutrient medium. After the nutrient medium has solidified, 10 μl of each of the following organism dilutions of the test strains in 0.85% NaCl solution are spotted onto the agar medium:
(§4) The plates are incubated for 24 hours at 37° C. (A. niger 3 days at 28° C.) and then the highest dilution (lowest concentration) of the test substance at which growth is just no longer discernible (corresponds to the MIC) is determined.

Assay [5] has as its system Staphylococcus aureus ATCC 9144. Conditions: ATCC9144, 24 hours at 37° C. Here is the method: as §2, §3, §4
Assay [6] has as its system Aspergillus niger ATCC 6275. To be noted: ATCC6275, 72 h, Sabouraud 4% glucose agar, 3 days at 28° C. Here is the method:
as §2, §3, §4

Assay [7] has as its system Escherichia coli NCTC 8196. To be noted: NCTC8196, 24 hours at 37° C. Here is the method:
as §2, §3, §4

Assay [8] concerns Pseudomonas aeruginosa CIP A-22. Conditions: CIPA22, 24 hours at 37° C. On the procedure:
as §2, §3, §4

For assay [9], the system named is Enterococcus hirae ATCC 10541. To be noted: ATCC10541. Here is the method: as §1
Setting [10] is: 24 h, Candida albicans ATCC 1023 (as printed in Table 3e).
The mark [11] stands for this setting: ATCC10231, Candida albicans ATCC 10231, 24 hours at 37° C.

Consider `CC(Cc1ccc2ccccc2c1O)C[Si](C)(O[Si](C)(C)C)O[Si](C)(C)C` (stereo not drawn) [(117)], for which the MIC in assay [1] was 1000 µg/mL (≈ 2380 µM); in assay [2], above 1000 µg/mL; in assay [3], above 1000 µg/mL; in assay [4] (setting [10]), above 1000 µg/mL; in assay [5] it was above 1000 µg/mL; in assay [6] it was above 1000 µg/mL.
As for `CC(Cc1cc(Oc2ccccc2)ccc1O)C[Si](C)(C)c1ccccc1` (stereo not drawn) [(120)], the MIC was 4 µg/mL (≈ 10.6 µM) in [1]; above 1000 µg/mL in [4] (setting [11]); 8 µg/mL (≈ 21.2 µM) in [5]; above 1000 µg/mL in assay [7]; above 1000 µg/mL in assay [8]; above 1000 µg/mL in assay [6].
Take `C[Si](C)(CCCc1cc(Cl)ccc1O)c1ccccc1` [(119)]: the MIC in assay [1] is 2 µg/mL (≈ 6.56 µM); in assay [4] (setting [11]), 62 µg/mL (≈ 203 µM); in [5], 4 µg/mL (≈ 13.1 µM); in assay [7], above 1000 µg/mL; in assay [8] it was above 1000 µg/mL; in [6] it was 62 µg/mL (≈ 203 µM).
For `C[Si](C)(C)O[Si](C)(CCCc1ccc2ccccc2c1O)O[Si](C)(C)C` [(116)], the MIC in assay [1] was 500 µg/mL (≈ 1230 µM); in [2], above 1000 µg/mL; in assay [3], above 1000 µg/mL; in assay [4] (setting [10]), above 1000 µg/mL; in assay [5], above 1000 µg/mL; in assay [6] it was above 1000 µg/mL.
Consider `CC(Cc1cc(Oc2ccccc2)ccc1O)C[Si](C)(O[Si](C)(C)C)O[Si](C)(C)C` (stereo not drawn) [(101)], for which the MIC in [4] (setting [11]) is above 1000 µg/mL; in assay [5], 1000 µg/mL (≈ 2160 µM); in [7] it was above 1000 µg/mL; in [8], above 1000 µg/mL; in [6], above 1000 µg/mL.
For the molecule `C[Si](C)(C)O[Si](C)(C)CCCc1cc(Cl)ccc1O` [(115)], the MIC in assay [1] was 8 µg/mL (≈ 25.2 µM); in assay [4] (setting [11]), 500 µg/mL (≈ 1580 µM); in assay [5], 15 µg/mL (≈ 47.3 µM); in [7], 250 µg/mL (≈ 789 µM); in [8] it was above 1000 µg/mL; in assay [6], 500 µg/mL (≈ 1580 µM).
On to `COc1cc(CCC[Si](C)(O[Si](C)(C)C)O[Si](C)(C)C)ccc1O` [(102)], for which the MIC in [4] (setting [11]), in [5], in [7], in assay [8] and in assay [6] was above 1000 µg/mL throughout.
In the case of `CC(Cc1cc(C(C)(C)C)ccc1O)C[Si](C)(O[Si](C)(C)C)O[Si](C)(C)C` (stereo not drawn) [(108)], the MIC in [1] was 8 µg/mL (≈ 18.7 µM); in [4] (setting [11]), above 1000 µg/mL; in [7], above 1000 µg/mL; in assay [8] it was above 1000 µg/mL; in assay [6], above 1000 µg/mL.
Regarding `COc1ccc(O)c(CCC[Si](C)(O[Si](C)(C)C)O[Si](C)(C)C)c1` [(110)], the minimal inhibitory concentration (MIC) in assay [1] was 4 µg/mL (≈ 10.3 µM); in assay [4] (setting [11]) it was above 1000 µg/mL; in [5], 250 µg/mL (≈ 646 µM); in assay [7], above 1000 µg/mL; in [8] it was above 1000 µg/mL; in [6], above 1000 µg/mL.
With `C[Si](C)(C)O[Si](C)(CCCc1ccccc1O)O[Si](C)(C)C` [(104)], the MIC in assay [4] (setting [11]) is above 1000 µg/mL; in assay [5], 8 µg/mL (≈ 22.4 µM); in assay [7], above 1000 µg/mL; in assay [8] it was above 1000 µg/mL; in assay [6] it was above 1000 µg/mL.
For the molecule `C[Si](C)(C)O[Si](C)(C)CCCc1ccccc1O` [(106)], the MIC in assay [1] was 7.8 µg/mL (≈ 27.6 µM); in [9] it was 15.6 µg/mL (≈ 55.2 µM); in assay [3], 31.2 µg/mL (≈ 110 µM); in assay [4] (setting [11]), above 1000 µg/mL; in assay [5] it was 7.8 µg/mL (≈ 27.6 µM); in assay [7], above 1000 µg/mL. Further, the MIC was above 1000 µg/mL in [8] and 31.2 µg/mL (≈ 110 µM) in [6].
`CC[Si](CC)(CC)CC(C)Cc1cc(Oc2ccccc2)ccc1O` (stereo not drawn) [(118)]: the MIC in assay [4] (setting [11]) is above 1000 µg/mL; in assay [5], 4 µg/mL (≈ 11.2 µM); in [7] it was above 1000 µg/mL; in assay [8], above 1000 µg/mL; in [6] it was above 1000 µg/mL.
As for `C[Si](C)(CCCc1ccccc1O)c1ccccc1` [(107)], the MIC in [1] was 1.9 µg/mL (≈ 7.03 µM); in assay [9], 3.9 µg/mL (≈ 14.4 µM); in assay [3], 7.8 µg/mL (≈ 28.8 µM); in assay [4] (setting [11]), 125 µg/mL (≈ 462 µM); in [5] it was 1.9 µg/mL (≈ 7.03 µM); in assay [7] it was above 1000 µg/mL. Moreover, the MIC in assay [8] was above 1000 µg/mL; in assay [6], 15.6 µg/mL (≈ 57.7 µM).
In the case of `C[Si](C)(C)O[Si](C)(C)O[Si](C)(C)CCCc1cc(Cl)ccc1O` [(112)], the MIC in [1] is 2 µg/mL (≈ 5.11 µM); in [4] (setting [11]), above 1000 µg/mL; in assay [5], 7 µg/mL (≈ 17.9 µM); in assay [7], above 1000 µg/mL; in [8], above 1000 µg/mL; in [6], above 1000 µg/mL.
Turning to `C[Si](C)(C)O[Si](C)(C)O[Si](C)(C)CCCc1ccccc1O` [(105)], the MIC was 3.9 µg/mL (≈ 10.9 µM) in assay [1]; 15.6 µg/mL (≈ 43.7 µM) in assay [9]; above 1000 µg/mL in [3]; above 1000 µg/mL in assay [4] (setting [11]); 15.6 µg/mL (≈ 43.7 µM) in assay [5]; above 1000 µg/mL in assay [7]. Besides, the MIC in assay [8] and in [6] was above 1000 µg/mL throughout.
For the molecule `COc1ccc(O)c(CCC[Si](C)(C)c2ccccc2)c1` [(111)], the MIC in [1] was 8 µg/mL (≈ 26.6 µM); in assay [4] (setting [11]) it was above 1000 µg/mL; in [5] it was 125 µg/mL (≈ 416 µM); in [7], above 1000 µg/mL; in assay [8], above 1000 µg/mL; in assay [6] it was above 1000 µg/mL.
Regarding `CC(Cc1cc(-c2ccccc2)ccc1O)C[Si](C)(O[Si](C)(C)C)O[Si](C)(C)C` (stereo not drawn) [(103)], the MIC is 17.5 µg/mL (≈ 39.2 µM) in [1]; above 560 µg/mL in assay [9]; above 560 µg/mL in assay [3]; above 560 µg/mL in [4] (setting [11]); above 560 µg/mL in assay [5]; above 560 µg/mL in assay [7]. Moreover, the MIC in assay [8] and in assay [6] was above 560 µg/mL each time.
Turning to `CC(Cc1ccc2ccccc2c1O)C[Si](C)(C)c1ccccc1` (stereo not drawn) [(121)], the MIC was 250 µg/mL (≈ 747 µM) in [1]; above 1000 µg/mL in [2]; above 1000 µg/mL in [3]; above 1000 µg/mL in [4] (setting [10]); above 1000 µg/mL in assay [5]; above 1000 µg/mL in [6].
With `Cc1ccc(O)c(CCC[Si](C)(C)O[Si](C)(C)C)c1` [(114)], the MIC in [1] was 8 µg/mL (≈ 27 µM); in assay [4] (setting [11]), above 1000 µg/mL; in assay [5] it was 8 µg/mL (≈ 27 µM); in [7], above 1000 µg/mL; in assay [8] it was above 1000 µg/mL; in [6], above 1000 µg/mL.
